Entries after “also recorded” stand apart in the source; their conditions may differ.
What was measured:
[1] = system: UGT 1A1, 1A3, 1A6, 1A7, 1A8, 1A9, 1A10 and 2B7; test: Glucuronidation by the panel of 8 recombinant human UGT isoforms; conditions: substrate 10 μM
UGT1A1 = molecular target: T1, UGT1A1 (Homo sapiens, UniProt P22309); test: Glucuronidation by recombinant human UGT1A1
T1 sequence (P22309 26-533): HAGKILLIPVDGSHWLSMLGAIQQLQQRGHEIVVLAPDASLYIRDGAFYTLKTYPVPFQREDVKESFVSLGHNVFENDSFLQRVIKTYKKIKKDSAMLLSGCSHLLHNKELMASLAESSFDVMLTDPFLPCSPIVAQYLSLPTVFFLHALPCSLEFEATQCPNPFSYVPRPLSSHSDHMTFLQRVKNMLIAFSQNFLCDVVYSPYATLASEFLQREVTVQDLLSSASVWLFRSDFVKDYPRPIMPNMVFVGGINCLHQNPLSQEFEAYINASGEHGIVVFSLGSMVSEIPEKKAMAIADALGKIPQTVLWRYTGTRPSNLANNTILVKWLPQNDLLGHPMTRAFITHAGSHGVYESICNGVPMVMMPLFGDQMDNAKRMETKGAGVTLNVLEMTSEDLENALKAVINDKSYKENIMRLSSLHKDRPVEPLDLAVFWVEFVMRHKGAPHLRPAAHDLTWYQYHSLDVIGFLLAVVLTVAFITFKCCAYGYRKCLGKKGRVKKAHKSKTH

UGT1A3 = molecular target: T2, UGT1A3 (Homo sapiens, UniProt P35503); test: Glucuronidation by recombinant human UGT1A3
T2 sequence (P35503 29-534): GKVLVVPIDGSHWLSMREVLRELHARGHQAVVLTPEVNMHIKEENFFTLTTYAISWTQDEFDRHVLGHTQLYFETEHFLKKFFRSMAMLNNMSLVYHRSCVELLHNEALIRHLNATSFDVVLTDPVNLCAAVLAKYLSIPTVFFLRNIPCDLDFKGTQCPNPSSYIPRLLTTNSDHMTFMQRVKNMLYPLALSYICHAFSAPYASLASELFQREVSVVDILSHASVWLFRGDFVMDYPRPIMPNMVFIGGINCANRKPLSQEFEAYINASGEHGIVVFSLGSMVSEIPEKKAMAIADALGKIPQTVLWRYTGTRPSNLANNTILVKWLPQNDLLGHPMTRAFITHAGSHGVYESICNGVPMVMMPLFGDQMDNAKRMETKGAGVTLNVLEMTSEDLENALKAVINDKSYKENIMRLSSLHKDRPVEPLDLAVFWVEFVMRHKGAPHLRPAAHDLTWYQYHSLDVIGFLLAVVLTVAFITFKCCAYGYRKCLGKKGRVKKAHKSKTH

UGT1A9 = molecular target: T3, UGT1A9 (Homo sapiens, UniProt O60656); test: Glucuronidation by recombinant human UGT1A9
T3 sequence (O60656 26-530): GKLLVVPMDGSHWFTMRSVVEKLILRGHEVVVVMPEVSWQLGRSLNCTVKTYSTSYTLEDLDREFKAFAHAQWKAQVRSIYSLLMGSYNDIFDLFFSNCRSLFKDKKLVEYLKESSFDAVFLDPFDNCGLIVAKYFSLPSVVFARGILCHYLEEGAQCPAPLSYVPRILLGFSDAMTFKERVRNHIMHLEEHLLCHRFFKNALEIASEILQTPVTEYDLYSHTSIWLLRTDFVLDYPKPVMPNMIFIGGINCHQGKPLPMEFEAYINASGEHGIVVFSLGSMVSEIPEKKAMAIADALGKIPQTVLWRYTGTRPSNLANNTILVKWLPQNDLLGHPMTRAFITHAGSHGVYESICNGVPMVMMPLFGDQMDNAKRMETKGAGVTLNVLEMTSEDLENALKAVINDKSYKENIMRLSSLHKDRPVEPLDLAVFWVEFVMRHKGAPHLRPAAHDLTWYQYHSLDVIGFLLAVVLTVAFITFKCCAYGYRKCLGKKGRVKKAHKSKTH

Degree of regiospecificity (major glucuronide in bracket) (UGT1A1; UGT1A1, substrate 2.5 μM)	Degree of regiospecificity (major glucuronide in bracket) (UGT1A1; UGT1A1, substrate 2.5 μM, listed as 5,4’DHF)	Degree of regiospecificity (major glucuronide in bracket) (UGT1A1; UGT1A1, substrate 10 μM)	Degree of regiospecificity (major glucuronide in bracket) (UGT1A1; UGT1A1, substrate 10 μM, listed as 5,4’DHF)	Degree of regiospecificity (major glucuronide in bracket) (UGT1A3; UGT1A3, substrate 2.5 μM)	Degree of regiospecificity (major glucuronide in bracket) (UGT1A3; UGT1A3, substrate 10 μM)	Degree of regiospecificity (major glucuronide in bracket) (UGT1A9; UGT1A9, substrate 2.5 μM)	Degree of regiospecificity (major glucuronide in bracket) (UGT1A9; UGT1A9, substrate 10 μM)	Degree of regiospecificity (major glucuronide in bracket) (UGT1A9; UGT1A9, substrate 10 μM, listed as 5,4’DHF)	Degree of regiospecificity (major glucuronide in bracket) (UGT1A1; UGT1A1, substrate 2.5 μM, listed as 7,4’DHF)	Degree of regiospecificity (major glucuronide in bracket) (UGT1A3; UGT1A3, substrate 10 μM, listed as 4’HFnol)	SMILES	Glucuronidation and regiospecificity across the 8 UGT isoforms [1]	Degree of regiospecificity (major glucuronide in bracket) (UGT1A3; UGT1A3, substrate 10 μM, listed as 5,4’DHF)	Degree of regiospecificity (major glucuronide in bracket) (UGT1A1; UGT1A1, substrate 10 μM, listed as 7,4’DHF)	Degree of regiospecificity (major glucuronide in bracket) (UGT1A3; UGT1A3, substrate 10 μM, listed as 7,4’DHF)	Degree of regiospecificity (major glucuronide in bracket) (UGT1A9; UGT1A9, substrate 10 μM, listed as 7,4’DHF)	Degree of regiospecificity (major glucuronide in bracket) (UGT1A9; UGT1A9, substrate 10 μM, listed as 5,7THFnol)	Degree of regiospecificity (major glucuronide in bracket) (UGT1A1; UGT1A1, substrate 2.5 μM, listed as 4’HFnol)	Degree of regiospecificity (major glucuronide in bracket) (UGT1A1; UGT1A1, substrate 10 μM, listed as 4’HFnol)
–	–	–	–	–	–	–	–	–	–	–	O=c1c(O)c(-c2ccccc2)oc2ccccc12 [Fnol, 3-hydroxyflavone]	could be metabolized by any of the 8 UGT isoforms tested	–	–	–	–	–	–	–
Dominant (4’-O)	dominant regiospecificity	Dominant (4’-O)	dominant regiospecificity	Dominant (4’-O)	Moderate (4’-O)	Dominant (4’-O)	Dominant (4’-O)	dominant regiospecificity	–	–	O=c1cc(-c2ccc(O)cc2)oc2cccc(O)c12 [5,4'DHF, 5,4’-dihydroxyflavone]	4’-O was the preferred position of glucuronidation in all cases	moderate regiospecificity for 4’-O position	–	–	–	–	–	–
Weak (7-O)	–	Moderate (7-O)	–	Dominant (7-O)	Dominant (7-O)	Moderate (7-O)	Moderate (7-O)	–	weak	–	O=c1cc(-c2ccc(O)cc2)oc2cc(O)ccc12 [7,4'DHF, 7,4’-dihydroxyflavone]	except UGT1A6, all metabolizing isoforms glucuronidated both hydroxyl groups at C-7 and C-4’ positions	–	moderate regiospecificity for glucuronidation of 7-O position	dominant regiospecificity for glucuronidation of 7-O position	moderate regiospecificity for glucuronidation of 7-O position	–	–	–
No (3-O, 4’-O)	–	No (3-O, 4’-O)	–	Dominant (3-O)	No (3-O, 4’-O)	Dominant (3-O)	Dominant (3-O)	–	–	no regiospecificity	O=c1c(O)c(-c2ccc(O)cc2)oc2ccccc12 [4'HFnol, 3,4’-dihydroxyflavone]	most isoforms showed dominant regiospecificity by glucuronidating almost only the 3-O position	–	–	–	–	–	did not show any regiospecific preference	no regiospecificity; also recorded: did not show any regiospecific preference

SMILES	Degree of regiospecificity (major glucuronide in bracket) (UGT1A1; UGT1A1, substrate 2.5 μM)	Degree of regiospecificity (major glucuronide in bracket) (UGT1A1; UGT1A1, substrate 2.5 μM, listed as 5,4’DHF)	Degree of regiospecificity (major glucuronide in bracket) (UGT1A1; UGT1A1, substrate 10 μM)	Degree of regiospecificity (major glucuronide in bracket) (UGT1A1; UGT1A1, substrate 10 μM, listed as 5,4’DHF)	Degree of regiospecificity (major glucuronide in bracket) (UGT1A3; UGT1A3, substrate 2.5 μM)	Degree of regiospecificity (major glucuronide in bracket) (UGT1A3; UGT1A3, substrate 10 μM)	Degree of regiospecificity (major glucuronide in bracket) (UGT1A9; UGT1A9, substrate 2.5 μM)	Degree of regiospecificity (major glucuronide in bracket) (UGT1A9; UGT1A9, substrate 10 μM)	Degree of regiospecificity (major glucuronide in bracket) (UGT1A9; UGT1A9, substrate 10 μM, listed as 5,4’DHF)	Degree of regiospecificity (major glucuronide in bracket) (UGT1A1; UGT1A1, substrate 2.5 μM, listed as 7,4’DHF)	Degree of regiospecificity (major glucuronide in bracket) (UGT1A3; UGT1A3, substrate 10 μM, listed as 4’HFnol)	Glucuronidation and regiospecificity across the 8 UGT isoforms [1]	Degree of regiospecificity (major glucuronide in bracket) (UGT1A3; UGT1A3, substrate 10 μM, listed as 5,4’DHF)	Degree of regiospecificity (major glucuronide in bracket) (UGT1A1; UGT1A1, substrate 10 μM, listed as 7,4’DHF)	Degree of regiospecificity (major glucuronide in bracket) (UGT1A3; UGT1A3, substrate 10 μM, listed as 7,4’DHF)	Degree of regiospecificity (major glucuronide in bracket) (UGT1A9; UGT1A9, substrate 10 μM, listed as 7,4’DHF)	Degree of regiospecificity (major glucuronide in bracket) (UGT1A9; UGT1A9, substrate 10 μM, listed as 5,7THFnol)	Degree of regiospecificity (major glucuronide in bracket) (UGT1A1; UGT1A1, substrate 2.5 μM, listed as 4’HFnol)	Degree of regiospecificity (major glucuronide in bracket) (UGT1A1; UGT1A1, substrate 10 μM, listed as 4’HFnol)
O=c1c(O)c(-c2ccccc2)oc2cc(O)cc(O)c12 [5,7DHFnol, 3,5,7-trihydroxyflavone]	Weak (7-O)	–	weakly preferred the glucuronidation of 7-O over 3-O position; also recorded: Weak (7-O)	–	Dominant (7-O)	dominantly regiospecific for 7-O; also recorded: Dominant (7-O)	Weak (3-O)	did not show any regiospecific preference for any position; also recorded: No (3-O, 7-O)	–	–	–	–	–	–	–	–	3-O and 7-O were glucuronidated at comparable rates	–	–
